Measurements: patent US12077503B2, “Substituted cyclic amides and their use as herbicides” (FMC CORPORATION, priority 2015, dated 2024)

Tests used:
Type in all cases: in vivo
[1] = system: barnyardgrass (Echinochloa crus-galli); experiment: Test B flooded paddy test; conditions: Flood, 250 g ai/ha; 0 to 100 scale where 0 is no effect and 100 is complete control; 13 to 15 d
Procedure, shortened: (§1)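 Compound goes directly into floodwater once pots are flooded 3 cm above soil, targeting plants at two leaves; the water depth is then held for the test duration. Plants sit 13–15 d in a greenhouse and are rated visually, 100 denoting complete control.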

[2] = system: ducksalad (Heteranthera limosa); experiment: Test B flooded paddy test; conditions: Flood, 250 g ai/ha; 0 to 100 scale where 0 is no effect and 100 is complete control; 13 to 15 d
Procedure, shortened: as §1

[3] = system: sedge, umbrella (small-flower umbrella sedge, Cyperus difformis); experiment: Test B flooded paddy test; conditions: Flood, 250 g ai/ha; 0 to 100 scale where 0 is no effect and 100 is complete control; 13 to 15 d
Procedure, shortened: as §1

rice (Oryra sativa) = experiment: Test B flooded paddy test; conditions: Flood, 250 g ai/ha; 0 to 100 scale where 0 is no effect and 100 is complete control; 13 to 15 d
Procedure, shortened: as §1

[4] = system: barnyardgrass (Echinochloa crus-galli); experiment: Test A postemergence; conditions: postemergence; for Barnyardgrass plant response rating: 125 g ai/ha, visual injury rating on 0 to 100 scale (0 no effect, 100 complete control), approx. 10 d; for Plant response rating, Barnyardgrass: 500 g ai/ha, 0 to 100 scale, 0 no effect, 100 complete control
Procedure, shortened: (§2)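 Visual injury, scored on a 0–100 scale relative to untreated controls, was recorded about 10 d after application. Treatments were a preemergence soil spray over planted seeds or a postemergence spray on plants at the one- to two-leaf stage, 2 to 10 cm tall, all in loam soil–sand blend in the greenhouse.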

[5] = system: pigweed (Amaranthus retroflexus); experiment: Test A postemergence; conditions: postemergence; for Pigweed plant response rating: 125 g ai/ha, visual injury rating on 0 to 100 scale (0 no effect, 100 complete control), approx. 10 d; for Plant response rating, Pigweed: 500 g ai/ha, 0 to 100 scale, 0 no effect, 100 complete control
Procedure, shortened: as §2

[6] = system: ragweed (common ragweed, Ambrosia elatior); experiment: Test A postemergence; conditions: postemergence; for Ragweed plant response rating: 125 g ai/ha, visual injury rating on 0 to 100 scale (0 no effect, 100 complete control), approx. 10 d; for Plant response rating, Ragweed: 500 g ai/ha, 0 to 100 scale, 0 no effect, 100 complete control
Procedure, shortened: as §2

corn (Zea mays) = experiment: Test A postemergence; conditions: postemergence; for Corn plant response rating: 125 g ai/ha, visual injury rating on 0 to 100 scale (0 no effect, 100 complete control), approx. 10 d; for Plant response rating, Corn: 500 g ai/ha, 0 to 100 scale, 0 no effect, 100 complete control
Procedure, shortened: as §2

[7] = system: blackgrass (Alopecurus myosuroides); experiment: Test A postemergence; conditions: postemergence; for Blackgrass plant response rating: 125 g ai/ha, visual injury rating on 0 to 100 scale (0 no effect, 100 complete control), approx. 10 d; for Plant response rating, Blackgrass: 500 g ai/ha, 0 to 100 scale, 0 no effect, 100 complete control
Procedure, shortened: as §2

[8] = system: ryegrass, Italian (Italian ryegrass, Lolium multiflorum); experiment: Test A postemergence; conditions: postemergence; for Ryegrass, Italian plant response rating: 125 g ai/ha, visual injury rating on 0 to 100 scale (0 no effect, 100 complete control), approx. 10 d; for Plant response rating, Ryegrass, Italian: 500 g ai/ha, 0 to 100 scale, 0 no effect, 100 complete control
Procedure, shortened: as §2

Kochia (Kochia scoparia) [9] = experiment: Test A postemergence; conditions: postemergence; for Kochia plant response rating: 125 g ai/ha, visual injury rating on 0 to 100 scale (0 no effect, 100 complete control), approx. 10 d; for Plant response rating, Kochia: 500 g ai/ha, 0 to 100 scale, 0 no effect, 100 complete control
Procedure, shortened: as §2

[10] = system: giant foxtail (Setaria faberii); experiment: Test A postemergence; conditions: postemergence; for Foxtail, Giant plant response rating: 125 g ai/ha, visual injury rating on 0 to 100 scale (0 no effect, 100 complete control), approx. 10 d; for Plant response rating, Foxtail, Giant: 500 g ai/ha, 0 to 100 scale, 0 no effect, 100 complete control
Procedure, shortened: as §2

[11] = system: Galium (catchweed bedstraw, Galium aparine); experiment: Test A postemergence; conditions: postemergence; for Galium plant response rating: 125 g ai/ha, visual injury rating on 0 to 100 scale (0 no effect, 100 complete control), approx. 10 d; for Plant response rating, Galium: 500 g ai/ha, 0 to 100 scale, 0 no effect, 100 complete control
Procedure, shortened: as §2

[12] = system: wheat (Triticum aestivum); experiment: Test A postemergence; conditions: postemergence; for Wheat plant response rating: 125 g ai/ha, visual injury rating on 0 to 100 scale (0 no effect, 100 complete control), approx. 10 d; for Plant response rating, Wheat: 500 g ai/ha, 0 to 100 scale, 0 no effect, 100 complete control
Procedure, shortened: as §2

[13] = system: barnyardgrass (Echinochloa crus-galli); experiment: Test A preemergence; conditions: for Plant response rating, Barnyardgrass: 125 g ai/ha, preemergence, 0 to 100 scale (0 no effect, 100 complete control); for Barnyardgrass plant response rating (0 to 100 scale, 0 is no effect, 100 is complete control): Preemergence, 500 g ai/ha, visual injury approx. 10 d
Procedure, shortened: as §2

[14] = system: pigweed (Amaranthus retroflexus); experiment: Test A preemergence; conditions: for Plant response rating, Pigweed: 125 g ai/ha, preemergence, 0 to 100 scale (0 no effect, 100 complete control); for Pigweed plant response rating (0 to 100 scale, 0 is no effect, 100 is complete control): Preemergence, 500 g ai/ha, visual injury approx. 10 d
[15] = system: ragweed (common ragweed, Ambrosia elatior); experiment: Test A preemergence; conditions: for Plant response rating, Ragweed: 125 g ai/ha, preemergence, 0 to 100 scale (0 no effect, 100 complete control); for Ragweed plant response rating (0 to 100 scale, 0 is no effect, 100 is complete control): Preemergence, 500 g ai/ha, visual injury approx. 10 d
Procedure, shortened: as §2

[16] = system: ryegrass, Italian (Italian ryegrass, Lolium multiflorum); experiment: Test A preemergence; conditions: for Plant response rating, Ryegrass, Italian: 125 g ai/ha, preemergence, 0 to 100 scale (0 no effect, 100 complete control); for Ryegrass, Italian plant response rating (0 to 100 scale, 0 is no effect, 100 is complete control): Preemergence, 500 g ai/ha, visual injury approx. 10 d
Procedure, shortened: as §2

Kochia (Kochia scoparia) [17] = experiment: Test A preemergence; conditions: for Plant response rating, Kochia: 125 g ai/ha, preemergence, 0 to 100 scale (0 no effect, 100 complete control); for Kochia plant response rating (0 to 100 scale, 0 is no effect, 100 is complete control): Preemergence, 500 g ai/ha, visual injury approx. 10 d
Procedure, shortened: as §2

[18] = system: giant foxtail (Setaria faberii); experiment: Test A preemergence; conditions: for Plant response rating, Foxtail, Giant: 125 g ai/ha, preemergence, 0 to 100 scale (0 no effect, 100 complete control); for Foxtail, Giant plant response rating (0 to 100 scale, 0 is no effect, 100 is complete control): Preemergence, 500 g ai/ha, visual injury approx. 10 d
Procedure, shortened: as §2

O=C(Nc1ccccc1F)C1C(=O)N(c2ccccc2)CC1c1cccc(C(F)(F)F)c1 (stereo not drawn) [Compound 456]
0: Plant response rating, Barnyardgrass [1] | Plant response rating, Ducksalad [2] | Plant response rating, Sedge, Umbrella [3] | Plant response rating, Rice (rice (Oryra sativa)) | Barnyardgrass plant response rating [4] | Plant response rating, Barnyardgrass [4] | Pigweed plant response rating [5] | Plant response rating, Pigweed [5] | Ragweed plant response rating [6] | Plant response rating, Ragweed [6] | Corn plant response rating (corn (Zea mays)) | Plant response rating, Corn (corn (Zea mays)) | Blackgrass plant response rating [7] | Plant response rating, Blackgrass [7] | Ryegrass, Italian plant response rating [8] | Plant response rating, Ryegrass, Italian [8] | Kochia plant response rating (Kochia (Kochia scoparia) [9]) | Plant response rating, Kochia (Kochia (Kochia scoparia) [9]) | Foxtail, Giant plant response rating [10] | Plant response rating, Foxtail, Giant [10] | Galium plant response rating [11] | Plant response rating, Galium [11] | Wheat plant response rating [12] | Plant response rating, Wheat [12] | Plant response rating, Barnyardgrass [13] | Barnyardgrass plant response rating (0 to 100 scale, 0 is no effect, 100 is complete control) [13] | Plant response rating, Pigweed [14] | Pigweed plant response rating (0 to 100 scale, 0 is no effect, 100 is complete control) [14] | Plant response rating, Ragweed [15] | Ragweed plant response rating (0 to 100 scale, 0 is no effect, 100 is complete control) [15] | Plant response rating, Ryegrass, Italian [16] | Ryegrass, Italian plant response rating (0 to 100 scale, 0 is no effect, 100 is complete control) [16] | Plant response rating, Kochia (Kochia (Kochia scoparia) [17]) | Kochia plant response rating (0 to 100 scale, 0 is no effect, 100 is complete control) (Kochia (Kochia scoparia) [17]) | Plant response rating, Foxtail, Giant [18] | Foxtail, Giant plant response rating (0 to 100 scale, 0 is no effect, 100 is complete control) [18]

CN1CC(c2ccc(F)cc2)C(C(=O)Nc2ccccc2S(C)(=O)=O)C1=O (stereo not drawn) [Compound 439]
50: Plant response rating, Pigweed [5] | Plant response rating, Galium [11] | Plant response rating, Pigweed [14] | Ryegrass, Italian plant response rating (0 to 100 scale, 0 is no effect, 100 is complete control) [16]
80: Pigweed plant response rating (0 to 100 scale, 0 is no effect, 100 is complete control) [14]
20: Plant response rating, Ragweed [6] | Plant response rating, Corn (corn (Zea mays))
90: Barnyardgrass plant response rating [4] | Plant response rating, Barnyardgrass [4] | Foxtail, Giant plant response rating [10] | Plant response rating, Foxtail, Giant [10] | Plant response rating, Barnyardgrass [13] | Barnyardgrass plant response rating (0 to 100 scale, 0 is no effect, 100 is complete control) [13] | Plant response rating, Foxtail, Giant [18]
30: Plant response rating, Ryegrass, Italian [8] | Kochia plant response rating (Kochia (Kochia scoparia) [9])
70: Plant response rating, Kochia (Kochia (Kochia scoparia) [9]) | Plant response rating, Kochia (Kochia (Kochia scoparia) [17]) | Kochia plant response rating (0 to 100 scale, 0 is no effect, 100 is complete control) (Kochia (Kochia scoparia) [17])
100: Plant response rating, Ducksalad [2] | Foxtail, Giant plant response rating (0 to 100 scale, 0 is no effect, 100 is complete control) [18]
40: Plant response rating, Barnyardgrass [1] | Pigweed plant response rating [5] | Galium plant response rating [11] | Plant response rating, Wheat [12]
0: Plant response rating, Sedge, Umbrella [3] | Plant response rating, Rice (rice (Oryra sativa)) | Ragweed plant response rating [6] | Corn plant response rating (corn (Zea mays)) | Blackgrass plant response rating [7] | Ryegrass, Italian plant response rating [8] | Wheat plant response rating [12] | Plant response rating, Ragweed [15] | Plant response rating, Ryegrass, Italian [16]
60: Plant response rating, Blackgrass [7] | Ragweed plant response rating (0 to 100 scale, 0 is no effect, 100 is complete control) [15]
